Data from ChEMBL document CHEMBL3045176, “Occurrence of the antifeedant 14,15-dihydroajugapitin in the aerial parts of Ajuga iva from Algeria” (2000).

Legend:
Spodoptera littoralis = experiment: Antifeedant activity against final stadium larvae of Spodoptera littoralis in compound-treated sucrose-treated glass-fibre disks assessed as amount of disks eaten at 100 ppm after 18 hr by binary choice feeding bioassay; type: functional
Spodoptera frugiperda = experiment: Antifeedant activity against final stadium larvae of Spodoptera frugiperda (fall armyworm) in compound-treated sucrose-treated glass-fibre discs assessed as amount of discs eaten at 100 ppm after 18 hr by binary choice feeding bioassay; type: functional

Question: How did the AFI (Spodoptera littoralis) turn out when CC[C@H](C)C(=O)O[C@H]1[C@H](O)C[C@@H]2[C@@](C)([C@@H]3C[C@H]4CCO[C@H]4O3)[C@H](C)C[C@H](OC(C)=O)[C@@]2(COC(C)=O)[C@@]12CO2 [14,15-DIHYDROAJUGAPITIN] was run?
Answer: The AFI was 76%.

Question: What about the AFI (Spodoptera frugiperda) of the same compound?
Answer: The AFI was 74%.

Question: How did the AFI (Spodoptera littoralis) turn out when CC[C@H](C)C(=O)O[C@H]1[C@@H](O)C[C@@H]2[C@@](C)([C@@H]3C[C@H]4CCO[C@H]4O3)[C@H](C)C[C@H](OC(C)=O)[C@@]2(COC(C)=O)[C@@]12CO2 [IVAIN IV] was run?
Answer: Its AFI is 48%.

Question: And the AFI (Spodoptera frugiperda)?
Answer: The AFI was 61%.
